Patent publication US8895558B2, “Arylpiperazine-containing pyrrole 3-carboxamide derivatives for treating depressive disorders” (Green Cross Corporation, priority 2008, dated 2014)
Counter-ions that a name gives are not always drawn.

Assays:
mice = assay: Anti-depressants activity in forced swimming test; assay type: in vivo; conditions: 100 mg/kg po, 60 min before testing, hydrochloride
Experimental: To evaluate the anti-depressants activity of the compounds, the inhibitory effects on immobility in forced swimming test in mice were measured according to the methods described by Porsolt et al. [Porsolt R D et al., Eur J Pharmacol. 1978, 51, 291-294].
Each mouse was placed in a 25-cm glass cylinder (10 cm diameter) containing 15 cm of water maintained at 22±1 , and was forced to swim for 10 min. Twenty-four hours later, the mouse was replaced into the cylinder and the total duration of immobility was recorded during the last 5 min of the 6-min testing period. Mice are judged immobile when they float in an upright position and make only small movements to keep their head above water. Test drugs were suspended in 3% Tween 80 solution, and administered orally (po) 60 min before the testing.

[1] = target: T1, human recombinant serotonin 5-HT2A receptor (Homo sapiens, UniProt P28223); assay: Binding affinity for serotonin 5-HT2A receptor ([3H]Ketanserin); conditions: CHO-K1 expressed receptor, 1 nM [3H]Ketanserin
T1 construct: purchased PerkinElmer Life and Analytical Sciences, USA; host or cells: CHO-K1
Procedure, shortened: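 Membranes from CHO-K1 cells expressing recombinant receptor (5 ug/well) incubated 60 min at 27 with 1 nM [3H]ketanserin in 50 mM Tris-HCl pH 7.4, 4 mM CaCl2, 0.1% ascorbic acid; mianserin 20 uM defined nonspecific binding. Filtration and counting; IC50 by nonlinear regression over 7-8 concentrations in duplicate.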

[2] = target: T2, human recombinant 5-HT2C receptor (Homo sapiens, UniProt P28335); assay: Binding affinity for serotonin 5-HT2C receptor ([3H]Mesulergine); conditions: CHO-K1 membranes, 1.3 nM [3H]Mesulergine
T2 construct: purchased PerkinElmer
T2 sequence (P28335 33-458): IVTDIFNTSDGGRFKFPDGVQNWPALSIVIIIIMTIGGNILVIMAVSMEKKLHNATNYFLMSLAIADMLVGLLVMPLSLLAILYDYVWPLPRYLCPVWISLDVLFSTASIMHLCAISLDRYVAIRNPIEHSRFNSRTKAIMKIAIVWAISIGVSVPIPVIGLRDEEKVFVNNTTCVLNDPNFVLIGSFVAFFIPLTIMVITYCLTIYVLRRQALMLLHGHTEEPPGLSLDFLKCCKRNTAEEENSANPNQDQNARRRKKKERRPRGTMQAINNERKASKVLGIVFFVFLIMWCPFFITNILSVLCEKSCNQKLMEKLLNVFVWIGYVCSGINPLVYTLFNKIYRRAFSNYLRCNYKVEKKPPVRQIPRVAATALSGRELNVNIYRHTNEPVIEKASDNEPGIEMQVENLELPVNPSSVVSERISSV
Procedure, shortened: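 Competition binding with [3H]mesulergine; nonspecific binding defined with 100 uM mianserin. Incubation 60 min at 27, stopped by rapid filtration onto glass fiber filters presoaked in 0.5% PEI.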

[3] = target: T3, human serotonin transporter (Homo sapiens, UniProt P31645); assay: Binding affinity for serotonin transporter ([3H]Imipramine); conditions: HEK-293 membranes, 2 nM [3H]Imipramine
T3 construct: purchased PerkinElmer; host or cells: HEK-293
Procedure, shortened: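 Membranes from HEK-293 cells expressing human serotonin transporter (5 ug/well) incubated with compound and 2 nM [3H]imipramine in 50 mM Tris-HCl pH 7.4, 120 mM NaCl, 5 mM KCl, 30 min at 27. Bound ligand separated by filtration onto glass fiber filters presoaked in 0.5% PEI, washed with ice-cold Tris-HCl/0.9% NaCl.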

T3 sequence (P31645 whole entry): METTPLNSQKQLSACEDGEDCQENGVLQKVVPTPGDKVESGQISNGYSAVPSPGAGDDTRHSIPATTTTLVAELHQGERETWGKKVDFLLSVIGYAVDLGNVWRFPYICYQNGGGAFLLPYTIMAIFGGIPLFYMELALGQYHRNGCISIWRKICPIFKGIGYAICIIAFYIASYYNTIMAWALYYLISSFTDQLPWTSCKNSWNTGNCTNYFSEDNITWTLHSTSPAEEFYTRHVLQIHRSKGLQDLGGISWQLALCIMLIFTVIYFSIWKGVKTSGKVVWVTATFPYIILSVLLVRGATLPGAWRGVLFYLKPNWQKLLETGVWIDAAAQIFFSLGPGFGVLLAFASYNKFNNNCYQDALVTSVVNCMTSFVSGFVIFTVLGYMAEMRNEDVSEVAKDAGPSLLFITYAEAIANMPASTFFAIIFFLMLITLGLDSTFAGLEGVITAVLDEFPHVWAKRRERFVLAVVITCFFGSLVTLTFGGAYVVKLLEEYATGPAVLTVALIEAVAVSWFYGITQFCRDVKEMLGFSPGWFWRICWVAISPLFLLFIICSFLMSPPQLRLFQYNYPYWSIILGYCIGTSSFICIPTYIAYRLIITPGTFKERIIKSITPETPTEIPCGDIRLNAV
T1 sequence (P28223 whole entry): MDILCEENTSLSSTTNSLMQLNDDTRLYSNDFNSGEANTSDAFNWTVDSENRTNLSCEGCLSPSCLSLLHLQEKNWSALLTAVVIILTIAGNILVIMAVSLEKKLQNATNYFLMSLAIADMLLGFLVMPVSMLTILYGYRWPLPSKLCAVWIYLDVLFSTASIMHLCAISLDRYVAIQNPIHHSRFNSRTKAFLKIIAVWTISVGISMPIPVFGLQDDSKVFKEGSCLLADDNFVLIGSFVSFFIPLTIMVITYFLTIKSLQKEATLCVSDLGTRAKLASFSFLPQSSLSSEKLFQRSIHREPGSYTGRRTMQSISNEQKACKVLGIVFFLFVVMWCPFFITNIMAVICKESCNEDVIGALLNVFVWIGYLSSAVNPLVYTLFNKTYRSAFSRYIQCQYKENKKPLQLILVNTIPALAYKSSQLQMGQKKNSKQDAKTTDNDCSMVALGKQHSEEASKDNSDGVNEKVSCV

Compound | immobility in forced swimming test (mice) | IC50 [1] | IC50 [2] | IC50 [3]
Cc1[nH]c(-c2ccccc2)cc1C(=O)NCCN1CCN(c2cccc(Cl)c2Cl)CC1.Cl [Example 48, N-(2-(4-(2,3-dichlorophenyl)piperazin-1-yl)ethyl)-2-methyl-5-phenyl-1H-pyrrole-3-carboxamide hydrochloride] | 26.1% | 175 nM | 156 nM | 57 nM
CCCn1c(-c2ccccc2)cc(C(=O)NCCCCN2CCN(c3cccc(C)c3C)CC2)c1C [Example 33, N-(4-(4-(2,3-dimethylphenyl)piperazin-1-yl)butyl)-2-methyl-5-phenyl-1-propyl-1H-pyrrole-3-carboxamide hydrochloride] |  | 792 nM | 149 nM | 76 nM
CCCCn1c(-c2ccccc2)cc(C(=O)NCCCN2CCN(c3cccc(Cl)c3Cl)CC2)c1C [Example 71, 1-butyl-N-(3-(4-(2,3-dichlorophenyl)piperazin-1-yl)propyl)-2-methyl-5-phenyl-1H-pyrrole-3-carboxamide hydrochloride] |  | 188 nM | 32 nM | 642 nM
Cc1cccc(N2CCN(CCCNC(=O)c3cc(-c4ccccc4)n(-c4ccc(F)cc4)c3C)CC2)c1C [Example 15, N-(3-(4-(2,3-dimethylphenyl)piperazin-1-yl)propyl)-1-(4-fluorophenyl)-2-methyl-5-phenyl-1H-pyrrole-3-carboxamide] |  | 6.9 nM | 162 nM | 53.6 nM
Cc1c(C(=O)NCCCN2CCN(c3cccc(Cl)c3Cl)CC2)cc(-c2ccccn2)n1C [Example 92, N-(3-(4-(2,3-dichlorophenyl)piperazin-1-yl)propyl)-1,2-dimethyl-5-(pyridin-2-yl)-1H-pyrrole-3-carboxamide dihydrochloride] |  | 43 nM | 267 nM | 110 nM
COc1ccc(-c2cc(C(=O)NCCCN3CCN(c4cccc(Cl)c4Cl)CC3)c(C)n2C)cc1 [Example 74, N-(3-(4-(2,3-dichlorophenyl)piperazin-1-yl)propyl)-5-(4-methoxyphenyl)-1,2-dimethyl-1H-pyrrole-3-carboxamide hydrochloride] |  | 108 nM | 101 nM | 76.2 nM
Cc1[nH]c(C(C)(C)C)cc1C(=O)NCCCN1CCN(c2cccc(Cl)c2Cl)CC1 [Example 127, 5-tert-butyl-N-(3-(4-(2,3-dichlorophenyl)piperazin-1-yl)propyl)-2-methyl-1H-pyrrole-3-carboxamide hydrochloride] |  | 107 nM | 1390 nM | 860 nM
CCn1c(-c2ccccc2)cc(C(=O)NCCCN2CCN(c3cccc(Cl)c3Cl)CC2)c1C [Example 11, N-(3-(4-(2,3-dichlorophenyl)piperazin-1-yl)propyl)-1-ethyl-2-methyl-5-phenyl-1H-pyrrole-3-carboxamide] |  | 376 nM | 66 nM | 182 nM
C=CCCc1cc(C(=O)NCCCN2CCN(c3cccc(Cl)c3Cl)CC2)c(C)[nH]1 [Example 135, 5-(but-3-enyl)-N-(3-(4-(2,3-dichlorophenyl)piperazin-1-yl)propyl)-2-methyl-1H-pyrrole-3-carboxamide] |  | 65 nM | 157 nM | 144 nM
CCCn1c(-c2ccccc2)cc(C(=O)NCCCN2CCN(c3cccc(Cl)c3Cl)CC2)c1Cl [Example 116] |  | 69 nM | 136 nM | 1090 nM
CCn1c(-c2ccccc2)cc(C(=O)NCCN2CCN(c3cccc(Cl)c3Cl)CC2)c1C [Example 49, N-(2-(4-(2,3-dichlorophenyl)piperazin-1-yl)ethyl)-1-ethyl-2-methyl-5-phenyl-1H-pyrrole-3-carboxamide hydrochloride] |  | 100 nM | 96 nM | 85 nM
CCCCc1cc(C(=O)NCCCN2CCN(c3cccc(Cl)c3Cl)CC2)c(C)[nH]1 [Example 137, 5-butyl-N-(3-(4-(2,3-dichlorophenyl)piperazin-1-yl)propyl)-2-methyl-1H-pyrrole-3-carboxamide] |  | 68 nM | 133 nM | 62 nM
Cc1c(C(=O)NCCCN2CCN(c3cccc(Cl)c3)CC2)cc(-c2ccccc2)n1CC1CCCCC1 [Example 20, N-(3-(4-(3-chlorophenyl)piperazin-1-yl)propyl)-1-(cyclohexylmethyl)-2-methyl-5-phenyl-1H-pyrrole-3-carboxamide] |  | 1070 nM | 611 nM | 213 nM
COc1ccc(-c2cc(C(=O)NCCCN3CCN(c4cccc(Cl)c4Cl)CC3)c(C)[nH]2)cc1 [Example 73, N-(3-(4-(2,3-dichlorophenyl)piperazin-1-yl)propyl)-5-(4-methoxyphenyl)-2-methyl-1H-pyrrole-3-carboxamide hydrochloride] |  | 37 nM | 201 nM | 204 nM
CCCn1c(-c2ccccc2)cc(C(=O)NCCCN2CCN(c3ccccc3Br)CC2)c1C [Example 88, N-(3-(4-(2-bromophenyl)piperazin-1-yl)propyl)-2-methyl-5-phenyl-1-propyl-1H-pyrrole-3-carboxamide] |  | 221 nM | 633 nM | 225 nM
Cc1c(C(=O)NCCCN2CCN(c3cccc(Cl)c3Cl)CC2)cc(-c2ccccc2)n1CC(C)C [Example 28, N-(3-(4-(2,3-dichlorophenyl)piperazin-1-yl)propyl)-1-isobutyl-2-methyl-5-phenyl-1H-pyrrole-3-carboxamide] |  | 406 nM | 342 nM | 381 nM
Cc1c(C(=O)NCCCCN2CCN(c3cccc(Cl)c3Cl)CC2)cc(-c2ccccc2)n1C [Example 36, N-(4-(4-(2,3-dichlorophenyl)piperazin-1-yl)butyl)-1,2-dimethyl-5-phenyl-1H-pyrrole-3-carboxamide hydrochloride] |  | 28 nM | 32 nM | 93 nM
